Molecules are shown by their SMILES.

The record followed here is patent US8598365B2, “Herbicides” (Syngenta Limited, priority 2007, dated 2013).

Format in all cases: in vivo
Assay [1] concerns Setaria faberi (SETFA). Kind of assay: Example B post-emergence herbicidal activity. To be noted: 312 h, rate 250 g/ha, evaluated after 13 days, read-out: Post-emergence activity SETFA (100=total damage to plant; 0=no damage to plant). The gist of the method:
(§1)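 Pre-emergence spraying at one day, post-emergence at eight days after sowing. Spray solution in acetone/water (50:50) plus 0.5% Tween 20; plants held at 24/16 °C day/night, 14 h light, 65% humidity. Evaluation at 13 days on a 0–100 damage scale.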

Assay [2] has as its system Amaranthus retoflexus (AMARE). Kind of assay: Example B post-emergence herbicidal activity. As to conditions: Amaranthus retroflexus, 312 h, rate 250 g/ha, evaluated after 13 days, read-out: Post-emergence activity AMARE (100=total damage to plant; 0=no damage to plant). The gist of the method:
as §1

Assay [3] deals with Echinochloa crus-galli (ECHCG). Kind of assay: Example B post-emergence herbicidal activity. To be noted: 312 h, rate 250 g/ha, evaluated after 13 days, read-out: Post-emergence activity ECHCG (100=total damage to plant; 0=no damage to plant). The method, boiled down:
as §1

Assay [4] has as its system Alopecurus myosuroides (ALOMY). Kind of assay: Example B post-emergence herbicidal activity. As to conditions: 312 h, rate 250 g/ha, evaluated after 13 days, read-out: Post-emergence activity ALOMY (100=total damage to plant; 0=no damage to plant). The method, boiled down: as §1
In assay [5] the test system is Avena fatua (AVEFA). Kind of assay: Example B post-emergence herbicidal activity. To be noted: 312 h, rate 250 g/ha, evaluated after 13 days, read-out: Post-emergence activity AVEFA (100=total damage to plant; 0=no damage to plant). The method, boiled down: as §1
The subject of assay [6] is Setaria faberi (SETFA). Kind of assay: Example B pre-emergence herbicidal activity. As to conditions: 312 h, rate 250 g/ha, evaluated after 13 days, read-out: Pre-Emergence Activity SETFA (100=total damage to plant; 0=no damage to plant). The gist of the method: as §1
In assay [7] the test system is Amaranthus retoflexus (AMARE). Kind of assay: Example B pre-emergence herbicidal activity. To be noted: Amaranthus retroflexus, 312 h, rate 250 g/ha, evaluated after 13 days, read-out: Pre-Emergence Activity AMARE (100=total damage to plant; 0=no damage to plant). The method, boiled down:
as §1

Assay [8] has as its system Echinochloa crus-galli (ECHCG). Kind of assay: Example B pre-emergence herbicidal activity. To be noted: 312 h, rate 250 g/ha, evaluated after 13 days, read-out: Pre-Emergence Activity ECHCG (100=total damage to plant; 0=no damage to plant). The method, boiled down:
as §1

Assay [9] deals with Alopecurus myosuroides (ALOMY). Kind of assay: Example B pre-emergence herbicidal activity. As to conditions: 312 h, rate 250 g/ha, evaluated after 13 days, read-out: Pre-Emergence Activity ALOMY (100=total damage to plant; 0=no damage to plant). The method, boiled down: as §1
Assay [10] deals with Avena fatua (AVEFA). Kind of assay: Example B pre-emergence herbicidal activity. As to conditions: 312 h, rate 250 g/ha, evaluated after 13 days, read-out: Pre-Emergence Activity AVEFA (100=total damage to plant; 0=no damage to plant). The method, boiled down:
as §1

Turning to `Cc1sc(-c2ccc(I)cc2)nc1C1C(=O)[C@@H]2CC[C@@H](C2)C1=O` (stereo partly drawn) [Compound T30], the pest or weed control at 250 g/ha with Setaria faberi (SETFA) [1] came to 100%; in [2], 0%; in assay [3], 100%; in assay [4], 100%; in the assay with Avena fatua (AVEFA) [5] it was 100%; with Setaria faberi (SETFA) [6], 100%. The pest or weed control at 250 g/ha in assay [7] worked out at 20%; in [8], 100%; in [9], 90%; with Avena fatua (AVEFA) [10] it was 100%.
With `Cc1sc(-c2ccc(F)cc2)nc1C1C(=O)[C@@H]2CC[C@@H](C2)C1=O` (stereo partly drawn) [Compound T57], the pest or weed control at 250 g/ha turned out to be 100% with Setaria faberi (SETFA) [1]; 0% in assay [2]; 100% in [3]; 70% in assay [4]; 60% in the assay with Avena fatua (AVEFA) [5]; 90% in the assay on Setaria faberi (SETFA) [6]. The pest or weed control at 250 g/ha in assay [7] was determined as 0%; in assay [8], 90%; in assay [9], 60%; with Avena fatua (AVEFA) [10], 20%.
As for `CCc1sc(-c2ccc(Cl)cc2)nc1C1=C(OC(=O)C(C)(C)C)C2CCC(C2)C1=O` (stereo not drawn) [Compound P2, 2,2-dimethylpropionic acid 3-[2-(4-chloro-phenyl)-5-ethylthiazol-4-yl]-4-oxobicyclo[3.2.1]oct-2-en-2-yl ester], the pest or weed control at 250 g/ha turned out to be 100% in the assay with Setaria faberi (SETFA) [1]; 0% in [2]; 100% in assay [3]; 100% in [4]; 100% in the assay on Avena fatua (AVEFA) [5]; 100% in the assay with Setaria faberi (SETFA) [6]. Besides, the pest or weed control at 250 g/ha worked out at 0% in assay [7], 100% in assay [8], 80% in [9] and 40% in the assay with Avena fatua (AVEFA) [10].
As to `Cc1cc(Br)ccc1-c1nc(C2C(=O)[C@@H]3CC[C@@H](C3)C2=O)c(C)s1` (stereo partly drawn) [Compound T37], the pest or weed control at 250 g/ha came to 100% with Setaria faberi (SETFA) [1]; 0% in assay [2]; 100% in [3]; 100% in [4]; 90% with Avena fatua (AVEFA) [5]; 90% with Setaria faberi (SETFA) [6]. Besides, the pest or weed control at 250 g/ha in assay [7] came to 0%; in assay [8], 60%; in assay [9], 30%; with Avena fatua (AVEFA) [10], 30%.
As for `Cc1ccc(-c2nc(C3C(=O)[C@@H]4CC[C@@H](C4)C3=O)c(C)s2)cc1` (stereo partly drawn) [Compound T11], the pest or weed control at 250 g/ha in the assay with Setaria faberi (SETFA) [1] was 80%; in [2] it was 0%; in assay [3] it was 100%; in assay [4], 90%; in the assay with Avena fatua (AVEFA) [5], 40%; with Setaria faberi (SETFA) [6], 0%. The pest or weed control at 250 g/ha in assay [7] was 0%; in [8], 70%; in assay [9] it was 40%; with Avena fatua (AVEFA) [10], 0%.
With `CCc1sc(-c2ccc(Cl)cc2)nc1C1=C(OC(=C(C#N)C#N)C(F)(F)F)[C@@H]2CC[C@@H](C2)C1=O` [Compound P9], the pest or weed control at 250 g/ha in the assay on Setaria faberi (SETFA) [1] came out at 100%; in assay [2] it was 0%; in assay [3] it was 100%; in assay [4], 100%; in the assay on Avena fatua (AVEFA) [5], 100%; with Setaria faberi (SETFA) [6] it was 100%. Besides, the pest or weed control at 250 g/ha amounted to 0% in [7], 90% in assay [8], 90% in assay [9] and 100% in the assay on Avena fatua (AVEFA) [10].
